Experimental data published in patent US6169181A, “Compounds useful to treat retroviral infections” (Pharmacia & Upjohn Company, priority 1998, dated 2001).
Where “and” joins values, the source holds several entries; their conditions need not be identical. Equal values may be shown once. Read-outs that look alike come from different tables or passages of the source.

How the values were obtained:
[1] = molecular target: HIV-1 protease (Human immunodeficiency virus type 1 group M subtype B, UniProt P04585); assay: biochemical
In short: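 A substrate biotinylated at the N-terminal arginine and FITC-labelled at the C-terminal lysine was incubated with HIV-1 protease (10 μl of 0.1 μM) and compound for 1 h in the dark at room temperature. Buffer was 0.1 M sodium acetate pH 5.5, 1.0 M NaCl, 0.05% NP-40. Labelled product was separated from substrate using streptavidin beads and filtration, and the fluorescence gave percent inhibition.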

[2] = molecular target: T1, single chain tethered (tandem) HIV protease (HIV-1 M:B_HXB2R, UniProt P04585); assay: Tandem HIV protease assay; type: biochemical; settings: read-out: FITC KI; Table II; enzyme HIV1TANDEM
T1 construct: purified enzyme, FITC/biotin substrate assay
Method: In the enzyme inhibition assay described above, the sensitivity of Ki value determination is in part limited by the ability to continue to lower the enzyme concentration for compounds with high binding affinity. To prevent de-dimerization at low enzyme concentration, a tandemly linked enzyme is prepared in which the two monomers are covalently linked by an appropriate stretch of amino acid residues. Using the latter enzyme, the sensitivity of the inhibition assay is improved since much lower enzyme concentration can be utilized, as compared to the condition using the wild-type enzyme.
The starting inhibitor concentrations are determined based on preliminary enzyme inhibition screening results which estimate the expected potency of the inhibitor. Inhibitor concentrations are then prepared using the Biomek 1000 (Beckman) and the Quadra 96 (Tomtec). Substrate (biotinylated at the amino terminal arginine and fluorescently labeled with fluorescein at the carboxyl terminal lysine), inhibitor and the tandem enzyme are allowed to react in solution at pH 5.5 (buffers identical to those used with the native dimeric enzyme) in the dark for 96 hours. Streptavidin coated polystyrene beads are added to stop the reaction. The labeled cleavage product is separated from unreacted substrate via filtration. Residual fluorescence is quantitated with the Idexx SM2000 (Idexx) and the resulting data are analyzed using the NLLSF program.

[3] = Table II, enzyme HIV-1, DOSE 0.123 (unit not given)
[4] = Table II, enzyme HIV-1, DOSE 0.370 (unit not given)
[5] = Table II, enzyme HIV-1, DOSE 1.100 (unit not given)
[6] = Table II, enzyme HIV-1, DOSE 3.300 (unit not given)
[7] = Table II, enzyme HIV-1, DOSE 10.000 (unit not given)
[8] = Table II, enzyme HIV-1, DOSE 30.000 (unit not given)

Compound | PROTEASE % INHIB. [1, 3] | PROTEASE % INHIB. [1, 4] | PROTEASE % INHIB. [1, 5] | PROTEASE % INHIB. [1, 6] | PROTEASE % INHIB. [1, 7] | PROTEASE % INHIB. [1, 8] | Ki [2] | PROTEASE % INHIB. [1]
CCCC1(CCc2ccccc2)CC(O)=C(C(c2cccc(NS(=O)(=O)c3ccccn3)c2)C(C)(C)C)C(=O)O1 (single isomer, unassigned) [Example 278, N-[3-(R or S)-[1-[5,6-dihydro-4-hydroxy-2-oxo-6-(2-phenethyl)-[6-(R or S)-propyl]-2H-pyran-3-yl]-2,2-dimethylpropyl]phenyl]-2-pyridinesulfonamide] | 76.76% | 86.99% | 95.6% | 96.91% | 93.32% | 86.18% | 0.04 nM | 
CCCC1(CCC)CC(O)=C(C(c2cccc(NS(=O)(=O)c3ccc(C(F)(F)F)cn3)c2)C(C)(C)C)C(=O)O1 (single isomer, unassigned) [Example 285, 5-Trifluoromethyl-N-[3-(R or S)-[1-[4-hydroxy-2-oxo-6,6-di-n-propyl-5,6-dihydro-2H-pyran-3-yl]-2,2-dimethylpropyl]-phenyl]-2-pyridinesulfonamide] | 81.8% | 95.8% | 99.11% | 109.33% | 104.61% | 86.84% | 0.015 nM | 
CCC[C@@]1(CCc2ccc(F)cc2)CC(O)=C([C@@H](c2cccc(NS(=O)(=O)c3cn(C)cn3)c2)C(C)(C)C)C(=O)O1 (single isomer, unassigned) [Example 349, N-[3-{1(R or S)-(4-Hydroxy-5,6-dihydro-2-oxo-6(R or S)-(2-(4-fluorophenyl)ethyl)-6-propyl-2H-pyran-3-yl)-2,2-dimethyl-propyl}phenyl]-1-methyl-1H-imidazole-4-sulfonamide] | 74.5% | 88.21% | 99.92% | 104.99% | 103.49% | 98.24% | 0.111 nM | 
CCC[C@]1(CCc2ccccc2)CC(O)=C([C@@H](CC)c2cccc(NS(=O)(=O)c3ccc(C#N)cn3)c2)C(=O)O1 (single isomer, unassigned) [Example 338, N-[3-{1(S or R)-(4-Hydroxy-5,6-dihydro-2-oxo-6(S or R)-phenethyl-6-propyl-2H-pyran-3-yl)propyl]phenyl]-5-cyano-pyridine-2-sulfonamide] |  |  |  |  |  |  | 0.1 nM | 61.74 and 85.32 and 80.46 and 89.62 and 83.53 and 62.34
CCCC1(CCC)CC(O)=C(C(CC)c2cccc(NS(=O)(=O)c3ccc(C(F)(F)F)cn3)c2)C(=O)O1 (stereo not shown) [Example 280, 5-Trifluoromethyl-N-[3-[1-[4-hydroxy-2-oxo-6,6-di-n-propyl-5,6-dihydro-2H-pyran-3-yl]-propyl]-phenyl]-2-pyridinesulfonamide] | 95.28% | 94.98% | 93.01% | 86.69% | 78.64% | 76.85% | 0.1 nM | 
Cn1cnc(S(=O)(=O)Nc2cccc(C(C3=C(O)CC(CCc4ccccc4)(CCC(F)(F)F)OC3=O)C(C)(C)C)c2)c1 (single isomer, unassigned) [Example 273, N-[3-(R or S)-[1-[5,6-dihydro-4-hydroxy-2-oxo-6-(R or S)-(2-phenethyl)-6-(3,3,3-trifluoropropyl)-2H-pyran-3-yl]-2,2-dimethylpropyl]phenyl]-1-methyl-1H-imidazole-4-sulfonamide] | < 10% | 23.24% | 75.38% | 94.63% | 95.93% | 91% | 2.3 nM | 
